Patent US20250084060A1, “PRMT5 INHIBITORS AND METHODS OF TREATMENT” (HANGZHOU UNOGEN BIOTECH, LTD., priority 2022, published 2025)

Target: PRMT5 (Homo sapiens (Human), UniProt O14744)
Assay: PRMT5 Chemiluminescent Assay
Type: biochemical
Details: PRMT5 chemiluminescent assay kit (BPS Bioscience), histone H4 peptide substrate, eight-point dose response
Procedure: The PRMT5 activity is measured by using “PRMT5 Chemiluminescent Assay Kit” from BPS Bioscience, Catalog Number 52002L as per the instructions of the manufacturer. Briefly, the PRMT5 enzyme is incubated with S-adenosylmethionine in a 96-well plate precoated with histone H4 peptide substrate. Next, a highly specific antibody that recognizes methylated R3 residue of Histone H4 is added followed by a horseradkish peroxidase-labeled (HRP-labeled) secondary antibody. Detection is done by the addition of the HRP substrate to produce chemiluminescence that can be measured quantitatively.
Compounds were serially diluted 3-fold and dosed from 10 uM down to 0 uM. Compounds were tested in duplicates to generate an eight-point dose response for the calculation of their IC50s.

Sequence of PRMT5 (O14744 2-637): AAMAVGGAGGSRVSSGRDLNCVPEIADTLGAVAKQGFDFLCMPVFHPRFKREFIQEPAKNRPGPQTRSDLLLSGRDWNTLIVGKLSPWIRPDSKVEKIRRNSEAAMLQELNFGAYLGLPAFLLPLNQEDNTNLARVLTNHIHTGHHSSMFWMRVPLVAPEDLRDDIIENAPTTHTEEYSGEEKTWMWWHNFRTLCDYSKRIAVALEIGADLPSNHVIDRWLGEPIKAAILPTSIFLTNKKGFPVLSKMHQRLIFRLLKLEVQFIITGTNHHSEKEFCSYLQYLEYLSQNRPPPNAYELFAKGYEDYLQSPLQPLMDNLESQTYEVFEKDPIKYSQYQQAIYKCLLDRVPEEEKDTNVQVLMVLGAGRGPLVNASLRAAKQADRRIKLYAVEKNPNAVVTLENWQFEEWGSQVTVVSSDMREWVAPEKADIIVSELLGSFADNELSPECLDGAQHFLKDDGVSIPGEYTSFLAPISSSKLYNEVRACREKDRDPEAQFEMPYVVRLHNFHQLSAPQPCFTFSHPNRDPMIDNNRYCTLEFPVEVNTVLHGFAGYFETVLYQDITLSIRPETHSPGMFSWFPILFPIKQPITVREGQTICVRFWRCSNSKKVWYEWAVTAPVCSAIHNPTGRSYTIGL
Sequence of PRMT5 (Q9BQA1 2-342 partner): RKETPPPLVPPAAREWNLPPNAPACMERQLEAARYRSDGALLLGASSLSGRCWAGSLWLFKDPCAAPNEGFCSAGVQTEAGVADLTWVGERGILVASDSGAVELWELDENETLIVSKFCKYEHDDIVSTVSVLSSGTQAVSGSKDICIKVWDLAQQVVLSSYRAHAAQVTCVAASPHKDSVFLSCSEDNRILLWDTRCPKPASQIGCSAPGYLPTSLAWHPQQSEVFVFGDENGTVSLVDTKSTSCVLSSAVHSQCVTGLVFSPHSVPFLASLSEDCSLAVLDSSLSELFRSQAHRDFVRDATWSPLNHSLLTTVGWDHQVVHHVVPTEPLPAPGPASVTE

| SMILES | IC50 |
| --- | --- |
| O=c1[nH]c2ccccc2c(=O)n1CC(O)CN1CCc2ccccc2C1 (stereo not shown) [Compound 61, 3-[3-(3,4-dihydro-1H-isoquinolin-2-yl)-2-hydroxy-propyl]-1H-quinazoline-2,4-dione] | 876 nM |
| O=c1[nH]c2ccc(F)cc2c(=O)n1C[C@H](O)CN1CCc2ccccc2C1 [Compound 66, 3-[(2R)-3-(3,4-dihydro-1H-isoquinolin-2-yl)-2-hydroxy-propyl]-6-fluoro-1H-quinazoline-2,4-dione] | 176 nM |
| O=c1[nH]c2ccccc2c(=O)n1C[C@@H](O)CN1CCc2ccccc2C1 [Compound 62, 3-[(2S)-3-(3,4-dihydro-1H-isoquinolin-2-yl)-2-hydroxy-propyl]-1H-quinazoline-2,4-dione] | 13400 nM |
| O=c1c2ccccc2n(CCCC(F)(F)F)c(=O)n1C[C@H](O)CN1CCc2ccccc2C1 [Compound 93, 3-[(2R)-3-(3,4-dihydro-1H-isoquinolin-2-yl)-2-hydroxy-propyl]-1-(4,4,4-trifluorobutyl)quinazoline-2,4-dione] | 122 nM |
| CC(C)Cn1c(=O)n(C[C@H](O)CN2CCc3ccccc3C2)c(=O)c2cc(Br)ccc21 [Compound 71, 6-bromo-3-[(2R)-3-(3,4-dihydro-1H-isoquinolin-2-yl)-2-hydroxy-propyl]-1-isobutyl-quinazoline-2,4-dione] | 159 nM |
| O=c1[nH]c2ccccc2c(=O)n1C[C@H](O)CN1CCc2ccccc2C1 [Compound 64, 3-[(2R)-3-(3,4-dihydro-1H-isoquinolin-2-yl)-2-hydroxy-propyl]-1H-quinazoline-2,4-dione] | 360 nM |
| COCCn1c(=O)n(CC(O)CN2CCc3ccccc3C2)c(=O)c2ccccc21 (stereo not shown) [Compound 65, 3-[3-(3,4-dihydro-1H-isoquinolin-2-yl)-2-hydroxy-propyl]-1-(2-methoxyethyl)quinazoline-2,4-dione] | 518 nM |
| O=c1[nH]c2ccc(Cl)cc2c(=O)n1C[C@H](O)CN1CCc2ccccc2C1 [Compound 67, 6-chloro-3-[(2R)-3-(3,4-dihydro-1H-isoquinolin-2-yl)-2-hydroxy-propyl]-1H-quinazoline-2,4-dione] | 216 nM |
| COc1ccc(Cn2c(=O)c3ccccc3n(CC(O)CN3CCc4ccccc4C3)c2=O)cc1 (stereo not shown) [Compound 97, 1-[3-(3,4-dihydro-1H-isoquinolin-2-yl)-2-hydroxy-propyl]-3-[(4-methoxyphenyl)methyl]quinazoline-2,4-dione] | 9410 nM |
| Cn1c(=O)n(CC(O)CN2CCc3ccccc3C2)c(=O)c2ccccc21 (stereo not shown) [Compound 63, 3-[3-(3,4-dihydro-1H-isoquinolin-2-yl)-2-hydroxy-propyl]-1-methyl-quinazoline-2,4-dione] | 698 nM |
| CC(C)Cn1c(=O)n(C[C@H](O)CN2CCc3ccccc3C2)c(=O)c2cc(F)ccc21 [Compound 72, 3-[(2R)-3-(3,4-dihydro-1H-isoquinolin-2-yl)-2-hydroxy-propyl]-6-fluoro-1-isobutyl-quinazoline-2,4-dione] | 70 nM |
| COc1ccc2[nH]c(=O)n(C[C@H](O)CN3CCc4ccccc4C3)c(=O)c2c1 [Compound 81, 3-[(2R)-3-(3,4-dihydro-1H-isoquinolin-2-yl)-2-hydroxy-propyl]-6-methoxy-1H-quinazoline-2,4-dione] | 159 nM |
| CC(C)Cn1c(=O)n(C[C@H](O)CN2CCc3ccccc3C2)c(=O)c2ccccc21 [Compound 102, 3-[(2R)-3-(3,4-dihydro-1H-isoquinolin-2-yl)-2-hydroxy-propyl]-1-isobutyl-quinazoline-2,4-dione] | 71 nM |
| O=c1c2ccccc2n(CC2CC2(F)F)c(=O)n1C[C@H](O)CN1CCc2ccccc2C1 (stereo partly drawn) [Compound 90, 1-[(2,2-difluorocyclopropyl)methyl]-3-[(2R)-3-(3,4-dihydro-1H-isoquinolin-2-yl)-2-hydroxy-propyl]quinazoline-2,4-dione] | 121 nM |
| O=c1c2ccccc2n(CC2CCOCC2)c(=O)n1CC(O)CN1CCc2ccccc2C1 (stereo not shown) [Compound 105, 3-[3-(3,4-dihydro-1H-isoquinolin-2-yl)-2-hydroxy-propyl]-1-(tetrahydropyran-4-ylmethyl)quinazoline-2,4-dione] | 903 nM |
| O=c1c2ccccc2n(CC2CC(F)(F)C2)c(=O)n1C[C@H](O)CN1CCc2ccccc2C1 [Compound 95, 1-[(3,3-difluorocyclobutyl)methyl]-3-[(2R)-3-(3,4-dihydro-1H-isoquinolin-2-yl)-2-hydroxy-propyl]quinazoline-2,4-dione] | 164 nM |
| CC(C)Cn1c(=O)n(C[C@@H](O)CN2CCc3ccccc3C2)c(=O)c2ccccc21 [Compound 101, 3-[(2S)-3-(3,4-dihydro-1H-isoquinolin-2-yl)-2-hydroxy-propyl]-1-isobutyl-quinazoline-2,4-dione] | 4490 nM |
| N#Cc1ccc(Cn2c(=O)n(CC(O)CN3CCc4ccccc4C3)c(=O)c3ccccc32)cc1 (stereo not shown) [Compound 100, 4-[[3-[3-(3,4-dihydro-1H-isoquinolin-2-yl)-2-hydroxy-propyl]-2,4-dioxo-quinazolin-1-yl]methyl]benzonitrile] | 779 nM |
| O=c1c2ccccc2n(Cc2ccc(Cl)cc2)c(=O)n1C[C@H](O)CN1CCc2ccccc2C1 (stereo in doubt) [Compound 96, 1-[(4-chlorophenyl)methyl]-3-[3-(3,4-dihydro-1H-isoquinolin-2-yl)-2-hydroxy-propyl]quinazoline-2,4-dione] | 1060 nM |
| CC(C)Cn1c(=O)n(CC(O)CN2CCc3ccccc3C2)c(=O)c2ccccc21 (stereo not shown) [Compound 98, 3-[3-(3,4-dihydro-1H-isoquinolin-2-yl)-2-hydroxy-propyl]-1-isobutyl-quinazoline-2,4-dione] | 178 nM |
| CC(C)Cn1c(=O)n(C[C@H](O)CN2CCc3ccccc3C2)c(=O)c2cc(Cl)ccc21 [Compound 69, 6-chloro-3-[(2R)-3-(3,4-dihydro-1H-isoquinolin-2-yl)-2-hydroxy-propyl]-1-isobutyl-quinazoline-2,4-dione] | 126 nM |
| O=c1[nH]c2ccc(O)cc2c(=O)n1C[C@H](O)CN1CCc2ccccc2C1 [Compound 83, 3-[(2R)-3-(3,4-dihydro-1H-isoquinolin-2-yl)-2-hydroxy-propyl]-6-hydroxy-1H-quinazoline-2,4-dione] | 840 nM |

Molecules with a lower IC50, results first:

| IC50 | SMILES |
| --- | --- |
| 35 nM | O=c1c2ccc(-c3cccnc3)cc2n(CC2CC2)c(=O)n1C[C@H](O)CN1CCc2ccccc2C1 [Compound 86, 1-(cyclopropylmethyl)-3-[(2R)-3-(3,4-dihydro-1H-isoquinolin-2-yl)-2-hydroxy-propyl]-7-(3-pyridyl)quinazoline-2,4-dione] |
| 41 nM | O=c1c2c(F)cccc2n(CC2CC2)c(=O)n1C[C@H](O)CN1CCc2ccccc2C1 [Compound 89, 1-(cyclopropylmethyl)-3-[(2R)-3-(3,4-dihydro-1H-isoquinolin-2-yl)-2-hydroxy-propyl]-5-fluoro-quinazoline-2,4-dione] |
| 66 nM | COc1ccc2c(=O)n(C[C@H](O)CN3CCc4ccccc4C3)c(=O)[nH]c2c1 [Compound 82, 3-[(2R)-3-(3,4-dihydro-1H-isoquinolin-2-yl)-2-hydroxy-propyl]-7-methoxy-1H-quinazoline-2,4-dione] |
| 35 nM | COc1ccc2c(=O)n(C[C@H](O)CN3CCc4ccccc4C3)c(=O)n(CC3CC3)c2c1 [Compound 84, 1-(cyclopropylmethyl)-3-[(2R)-3-(3,4-dihydro-1H-isoquinolin-2-yl)-2-hydroxy-propyl]-7-methoxy-quinazoline-2,4-dione] |
| 63 nM | O=c1c2cc(F)ccc2n(CC2CC2)c(=O)n1C[C@H](O)CN1CCc2ccccc2C1 [Compound 77, 1-(cyclopropylmethyl)-3-[(2R)-3-(3,4-dihydro-1H-isoquinolin-2-yl)-2-hydroxy-propyl]-6-fluoro-quinazoline-2,4-dione] |
| 58 nM | COc1ccc2c(c1)c(=O)n(C[C@H](O)CN1CCc3ccccc3C1)c(=O)n2CC1CC1 [Compound 87, 1-(cyclopropylmethyl)-3-[(2R)-3-(3,4-dihydro-1H-isoquinolin-2-yl)-2-hydroxy-propyl]-6-methoxy-quinazoline-2,4-dione] |
| 24 nM | O=c1[nH]c2cc(Br)ccc2c(=O)n1C[C@H](O)CN1CCc2ccccc2C1 [Compound 75, 7-bromo-3-[(2R)-3-(3,4-dihydro-1H-isoquinolin-2-yl)-2-hydroxy-propyl]-1H-quinazoline-2,4-dione] |
| 57 nM | CC(C)Cn1c(=O)n(C[C@H](O)CN2CCc3ccccc3C2)c(=O)c2cc(-c3ccc(F)cc3)ccc21 [Compound 76, 3-[(2R)-3-(3,4-dihydro-1H-isoquinolin-2-yl)-2-hydroxy-propyl]-6-(4-fluorophenyl)-1-isobutyl-quinazoline-2,4-dione] |
| 29 nM | Cc1cccc2c1c(=O)n(C[C@H](O)CN1CCc3ccccc3C1)c(=O)n2CC1CC1 [Compound 85, 1-(cyclopropylmethyl)-3-[(2R)-3-(3,4-dihydro-1H-isoquinolin-2-yl)-2-hydroxy-propyl]-5-methyl-quinazoline-2,4-dione] |
| 33 nM | O=c1[nH]c2cc(Cl)ccc2c(=O)n1C[C@H](O)CN1CCc2ccccc2C1 [Compound 68, 7-chloro-3-[(2R)-3-(3,4-dihydro-1H-isoquinolin-2-yl)-2-hydroxy-propyl]-1H-quinazoline-2,4-dione] |
| 14 nM | CC(C)Cn1c(=O)n(C[C@H](O)CN2CCc3ccccc3C2)c(=O)c2ccc(Cl)cc21 [Compound 73, 7-chloro-3-[(2R)-3-(3,4-dihydro-1H-isoquinolin-2-yl)-2-hydroxy-propyl]-1-isobutyl-quinazoline-2,4-dione] |
| 21 nM | Cc1ccc2c(c1)c(=O)n(C[C@H](O)CN1CCc3ccccc3C1)c(=O)n2CC1CC1 [Compound 88, 1-(cyclopropylmethyl)-3-[(2R)-3-(3,4-dihydro-1H-isoquinolin-2-yl)-2-hydroxy-propyl]-6-methyl-quinazoline-2,4-dione] |
